Experimental findings from PubChem BioAssay (NCI) are described below.

Test systems include HCC-2998 colon; EKVX NSCLC; SW-620 colon; NCI-H460 lung; UACC-257 melanoma; OVCAR-5 ovarian; SF-539 CNS; SK-OV-3 ovarian; LOX IMVI melanoma; SK-MEL-5 melanoma.
Holding throughout (test): NCI-60 cell line screen, 48 h

The structures appear in SMILES notation.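 Dose response: 5 concentrations. Exposure: 48 h. Format: 96-well plates. Endpoint: linear interpolation; highest concentration if not reached. GI50: concentration for 50% inhibition of growth. TGI: concentration producing complete growth inhibition.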

Regarding `O=S(=O)(Cc1ccccc1)SCc1ccccc1`, the TGI in the experiment with HCC-2998 colon is 55.2 µM; in the experiment on EKVX NSCLC it was over 100 µM; in the experiment on SW-620 colon, 15.5 µM; with NCI-H460 lung it was over 83.8 µM; in the experiment on UACC-257 melanoma, 76 µM; in the experiment on OVCAR-5 ovarian, over 100 µM. Also, the TGI is 37.8 µM with SF-539 CNS, 97.3 µM in the experiment on SK-OV-3 ovarian, 30.9 µM with LOX IMVI melanoma and 48.5 µM in the experiment on SK-MEL-5 melanoma.
For the molecule `Oc1ccc(-c2[nH]c3ccccc3c2-c2nc3ccccc3o2)cc1`, the GI50 with HCC-2998 colon was 2.66 µM; in the experiment with EKVX NSCLC it was 4.76 µM; with SW-620 colon it was 3.04 µM; in the experiment on NCI-H460 lung, 3.24 µM; in the experiment with UACC-257 melanoma, 4.59 µM; in the experiment with OVCAR-5 ovarian it was 4.49 µM. Further, the GI50 in the experiment on SF-539 CNS was 7.56 µM; in the experiment with SK-OV-3 ovarian it was 5.03 µM; in the experiment on LOX IMVI melanoma it was 1.9 µM; with SK-MEL-5 melanoma it was 2.16 µM. Also, the TGI was determined as 7 µM with HCC-2998 colon; 21.9 µM with EKVX NSCLC; 13.4 µM in the experiment with SW-620 colon; 11.5 µM with NCI-H460 lung; 18.3 µM in the experiment on UACC-257 melanoma; 17.2 µM in the experiment with OVCAR-5 ovarian. Further, the TGI amounted to 22.1 µM with SF-539 CNS, 17.3 µM in the experiment with SK-OV-3 ovarian, 5.72 µM with LOX IMVI melanoma and 7.8 µM with SK-MEL-5 melanoma.
On to `NCC(Cc1ccccc1)P(=O)(O)O` (stereo not given), for which the TGI in the experiment with HCC-2998 colon, in the experiment with EKVX NSCLC, in the experiment on SW-620 colon, in the experiment on NCI-H460 lung, in the experiment on UACC-257 melanoma and in the experiment on OVCAR-5 ovarian was over 100 µM each time. In addition, the TGI in the experiment with SF-539 CNS, in the experiment with SK-OV-3 ovarian, in the experiment on LOX IMVI melanoma and with SK-MEL-5 melanoma was over 100 µM each time.
For `CCOC(=O)c1cc2cc(OCc3ccccc3)ccc2[nH]1`, the GI50 in the experiment on HCC-2998 colon, in the experiment with EKVX NSCLC, in the experiment on SW-620 colon, with NCI-H460 lung, in the experiment on UACC-257 melanoma and in the experiment with OVCAR-5 ovarian was over 100 µM throughout. The GI50 in the experiment on SF-539 CNS, in the experiment with SK-OV-3 ovarian, in the experiment on LOX IMVI melanoma and with SK-MEL-5 melanoma was over 100 µM throughout. The TGI in the experiment with HCC-2998 colon, in the experiment with EKVX NSCLC, with SW-620 colon, in the experiment on NCI-H460 lung, in the experiment with UACC-257 melanoma and in the experiment with OVCAR-5 ovarian was over 100 µM throughout. For the same molecule, the TGI with SF-539 CNS, in the experiment on SK-OV-3 ovarian, in the experiment on LOX IMVI melanoma and in the experiment with SK-MEL-5 melanoma was over 100 µM in each case.
On to `CCN(CCNc1ccc(C)c2sc3cc(Cl)ccc3c(=O)c12)CC(C)(C)O`, for which the GI50 is 2.02 µM with HCC-2998 colon; 3.41 µM with EKVX NSCLC; 3.64 µM in the experiment on SW-620 colon; 2.33 µM in the experiment on NCI-H460 lung; 2.03 µM with UACC-257 melanoma; 10.5 µM in the experiment with OVCAR-5 ovarian. Further, the GI50 in the experiment on SF-539 CNS was 5.54 µM; with SK-OV-3 ovarian it was 6.21 µM; with LOX IMVI melanoma, 3.07 µM; in the experiment with SK-MEL-5 melanoma, 1.83 µM. Moreover, the TGI with HCC-2998 colon amounted to 4.08 µM; with EKVX NSCLC it was 21.6 µM; in the experiment on SW-620 colon, 13.4 µM; in the experiment on NCI-H460 lung, 5 µM; in the experiment with UACC-257 melanoma it was 4.37 µM; in the experiment with OVCAR-5 ovarian, 27.7 µM. The TGI in the experiment on SF-539 CNS was determined as 24 µM; in the experiment with SK-OV-3 ovarian it was 20.4 µM; with LOX IMVI melanoma it was 10.3 µM; in the experiment on SK-MEL-5 melanoma, 3.49 µM.
As for `O=C(CN(/C=C/C(=O)C(F)(F)F)c1ccccc1)c1ccc(F)cc1`, the GI50 was 17.8 µM with HCC-2998 colon; 49.9 µM in the experiment on EKVX NSCLC; 19.9 µM in the experiment with SW-620 colon; 22.6 µM in the experiment with NCI-H460 lung; 19.1 µM in the experiment on UACC-257 melanoma; 25.6 µM in the experiment with OVCAR-5 ovarian. Also, the GI50 with SF-539 CNS is 28.7 µM; in the experiment on SK-OV-3 ovarian it was 55 µM; with LOX IMVI melanoma, 15.5 µM; in the experiment on SK-MEL-5 melanoma it was 1.34 µM. Besides, the TGI in the experiment with HCC-2998 colon was 41.6 µM; with EKVX NSCLC it was over 100 µM; with SW-620 colon it was 42.9 µM; in the experiment on NCI-H460 lung it was 59.3 µM; in the experiment with UACC-257 melanoma it was 93.2 µM; with OVCAR-5 ovarian, 88.7 µM. The TGI in the experiment on SF-539 CNS is 63.8 µM; with SK-OV-3 ovarian, over 100 µM; in the experiment with LOX IMVI melanoma, 37.6 µM; in the experiment on SK-MEL-5 melanoma, 12.3 µM.
For the molecule `CC1=NN(c2nc(N)nc(/C=C\c3ccccc3)n2)C(C)(C)C1`, the GI50 with HCC-2998 colon is 11.9 µM; in the experiment on EKVX NSCLC, 12.5 µM; in the experiment with SW-620 colon, 4.48 µM; in the experiment on NCI-H460 lung it was 13.1 µM; with UACC-257 melanoma, 5.73 µM; in the experiment with OVCAR-5 ovarian, 20.7 µM. In addition, the GI50 in the experiment on SF-539 CNS is 6.25 µM; in the experiment on SK-OV-3 ovarian it was 6.66 µM; in the experiment on LOX IMVI melanoma, 1.99 µM; in the experiment with SK-MEL-5 melanoma, 16 µM. Besides, the TGI with HCC-2998 colon turned out to be 26.1 µM; in the experiment on EKVX NSCLC, 45.8 µM; with SW-620 colon it was 44.2 µM; with NCI-H460 lung, 34.2 µM; with UACC-257 melanoma, 20.1 µM; in the experiment on OVCAR-5 ovarian, 36.5 µM. The TGI turned out to be 22.4 µM in the experiment on SF-539 CNS, 36.1 µM in the experiment on SK-OV-3 ovarian, 15 µM with LOX IMVI melanoma and 32.3 µM in the experiment with SK-MEL-5 melanoma.
Take `O=C1c2ccoc2C(=O)c2oc(=O)ccc21`: the TGI in the experiment on HCC-2998 colon is over 59 µM; in the experiment on EKVX NSCLC, 35.2 µM; in the experiment with SW-620 colon, 11.5 µM; with NCI-H460 lung it was 37.1 µM; with UACC-257 melanoma, 20.8 µM; in the experiment with OVCAR-5 ovarian, 33.9 µM. For the same molecule, the TGI in the experiment on SF-539 CNS is 8.31 µM; in the experiment with SK-OV-3 ovarian it was over 57.9 µM; in the experiment with LOX IMVI melanoma, 10.7 µM; in the experiment with SK-MEL-5 melanoma it was 3.15 µM.
Take `CCN(CC)C(=O)CCCCCn1c2ccccc2c2c3c(c4c5ccccc5[nH]c4c21)C(=O)N(O)C3=O`: the GI50 in the experiment with HCC-2998 colon was 4.72 µM; with EKVX NSCLC it was 10.9 µM; in the experiment with SW-620 colon, 4.29 µM; in the experiment with NCI-H460 lung, 3.62 µM; in the experiment on UACC-257 melanoma, 10.7 µM; in the experiment with OVCAR-5 ovarian, 31.1 µM. The GI50 with SF-539 CNS was 1.92 µM; with SK-OV-3 ovarian it was 22.2 µM; in the experiment on LOX IMVI melanoma, 1.13 µM; in the experiment on SK-MEL-5 melanoma it was 2 µM. Also, the TGI in the experiment with HCC-2998 colon is 27.1 µM; in the experiment on EKVX NSCLC it was 58.4 µM; with SW-620 colon it was over 100 µM; in the experiment with NCI-H460 lung, 15.4 µM; with UACC-257 melanoma, 55.1 µM; in the experiment with OVCAR-5 ovarian it was over 100 µM. Also, the TGI in the experiment on SF-539 CNS worked out at 4.27 µM; with SK-OV-3 ovarian, 92.1 µM; in the experiment with LOX IMVI melanoma it was 2.88 µM; with SK-MEL-5 melanoma, 5.02 µM.
